From patent US20140271734A1, “BILE ACID RECYCLING INHIBITORS FOR TREATMENT OF BARRETT'S ESOPHAGUS AND GASTROESOPHAGEAL REFLUX DISEASE” (LUMENA PHARMACEUTICALS, INC., priority 2013, published 2014)

How the values were obtained:
[1] = test system: plasma lipase; assay: Plasma lipase in ZDF rats, week 3; format: in vivo; conditions: twice daily oral gavage
[2] = test system: Alkaline Phosphatase (ALP); conditions: twice daily oral gavage; Week 3
Description: This study was conducted to determine the effects of two non-absorbed ASBTi compounds in the ZDF rat model after 3 weeks of treatment.
Animals were acclimatized for 5-7 days after arrival. […] The 2nd set of study was initiated after completion of the 1st. Test compound formulation prepared every other day and stored at 4° C. […] After 3rd week of treatment blood samples were collected by cardiac puncture from fasted animals for blood chemistry analysis: ALAT, ASAT, GGT, Alkaline Phosphatase and total Bile Acids. Tests were performed in contract clinical laboratory (Liver Profile SA320, Antech Diagnostics, Orange Country, Calif.).
Blood was collected by tail vein bleed weekly and after 3 weeks of treatment by cardiopuncture for serum tests. Data for each group is presented as the Mean Value±SEM. Statistically evaluation by t-test: *P<0.05, **P<0.01,***P<0.001 vs. vehicle group.

[3] = test system: plasma triglycerides; assay: Plasma triglycerides in ZDF rats, week 3; format: in vivo; conditions: twice daily oral gavage, no dose-related response
[4] = test system: Alanine Aminotransferase (ALAT); assay: Plasma alanine aminotransferase in ZDF rats, week 3; format: in vivo; conditions: twice daily oral gavage
[5] = test system: GLP-2; assay: GLP-2 in plasma of non-fasted ZDF rats, 2 weeks treatment; format: in vivo
[6] = test system: Hemoglobin A1c (HbA1c); assay: Baseline-corrected percent HbA1c in ZDF rats; format: in vivo; conditions: twice daily oral gavage
[7] = test system: total serum bile acids; assay: Plasma total serum bile acids in ZDF rats, week 3; format: in vivo; conditions: twice daily oral gavage
[8] = test system: plasma amylase; assay: Plasma amylase in ZDF rats, week 3; format: in vivo; conditions: twice daily oral gavage
[9] = test system: plasma bile acid; assay: Plasma bile acid concentrations in ZDF rats; format: in vivo
Description: (§1) Male Zucker diabetic fatty rats (ZDF/GmiCrl-fa/fa) were purchased from Charles River (Raleigh, N.C.) and housed under controlled conditions (12:12 light-dark cycle, 24° C. and 50% relative humidity) with free access to rodent food (Purina 5008, Harlan Teklad, Indianapolis, Ind.). All rats arrived at seven weeks of age (±3 days). After a one-week acclimation period, rats were anesthetized with isoflurane (Abbott Laboratories, IL) and tail-vein blood samples were collected at 9 am without fasting. Blood glucose levels were measured using a glucometer (Bayer, Leverkusen, Germany). In order to ensure balanced treatment groups, ZDF rats were assigned to six treatment groups based upon baseline glucose: vehicle (0.5% HPMC, 0.1% Tween80) and five doses of 264W94 (0.001, 0.01, 0.1, 1, 10 mg/kg). All treatments were given via oral gavage twice a day and animals were followed for two weeks with blood samples collected from tail vein at the end of each week at 9 am without fasting. Fecal samples were collected for 24 hours during the second week of treatment.
(§2) Non-esterified fatty acids (NEFA), bile acids, and bile acids in fecal extraction were measured using the Olympus AU640 clinical chemistry analyzer (Beckman Coulter, Irving, Tex.).
Male ZDF rats (n=4) were administered vehicle, SC-435 (1, 10 or 30 mg/kg) or LUM002 (0.3, 1, 3, 10 or 30 mg/kg) by oral gavage twice a day for 2 weeks. Plasma bile acid levels were determined at the end of the second week. […] Data are expressed as mean values±SEM.

[10] = test system: bile acids in the feces; assay: Fecal bile acid excretion in ZDF rats after oral 264W94; format: in vivo, Zucker diabetic fatty rats (ZDF/GmiCrl-fa/fa)
Description: as §1, §2

[11] = 264W94 0.001-10 mg/kg oral gavage twice a day, 2 weeks

Structure (SMILES) | Plasma lipase [1] | Plasma alkaline phosphatase (ALP) [2] | Fasting plasma triglycerides [3] | Plasma alanine aminotransferase (ALAT) [4] | GLP-2 in plasma [5] | Baseline-corrected percent HbA1c [6] | Plasma total serum bile acids (SBA) [7] | Plasma amylase [8] | Plasma bile acid levels ([9]; SC-435 1, 10 or 30 mg/kg, LUM002 0.3, 1, 3, 10 or 30 mg/kg, oral gavage twice a day, end of second week, n=4) | Bile acids in the feces [10, 11] | Fecal bile acid concentrations elevated vs vehicle treated rats ([10]; 264W94 0.001-10 mg/kg oral gavage twice a day, 24 h feces in second week) | Fecal NEFA ([10]; 264W94 oral gavage twice a day, 2 weeks) | ED50 (fecal bile acid elevation) ([10]; oral gavage twice a day, 2 weeks) [mg/kg] | Plasma bile acid concentrations [9, 11]
CCCCC1(CCCC)CS(=O)(=O)c2ccc(N(C)C)cc2[C@@H](c2ccc(OCCCC[N+]34CCN(CC3)CC4)cc2)[C@H]1O.CS(=O)(=O)[O-] [SC-435, 1-[4-[4-[(4R,5R)-3,3-dibutyl-7-(dimethylamino)-2,3,4,5-tetrahydro-4-hydroxy-1,1-dioxido-1-benzothiepin-5-yl]phenoxy]butyl]4-aza-1-azoniabicyclo[2.2.2]octane methanesulfonate salt, reference compound] | statistically significant reductions in plasma lipase at higher doses | significant reductions in ALP | statistically significant elevations | Neither LUM002 nor SC-435 caused statistically significant reductions | significant elevations in GLP2 at higher doses | significant dose-dependent reductions | statistically significant reductions in SBA | Neither LUM002 nor SC-435 caused a statistically significant changes | decreased for all doses | – | – | – | – | –
CCCC[C@]1(CC)CS(=O)(=O)c2cc(OC)c(OC)cc2[C@@H](c2ccccc2)N1 [Compound 264W94] | – | – | – | – | – | – | – | – | – | dose-dependently increased | up to 6.5 fold | slightly increased | 0.17 | decreased dose-dependently
